Experimental data taken from paper PMC5668913 (Biochemistry and Biophysics Reports, 2015).

Target: T1, MbRIP1 (type 1 ribosome inactivating protein from Momordica balsamina) (Momordica balsamina, UniProt D9J2T9)
T1 sequence (D9J2T9 1-246): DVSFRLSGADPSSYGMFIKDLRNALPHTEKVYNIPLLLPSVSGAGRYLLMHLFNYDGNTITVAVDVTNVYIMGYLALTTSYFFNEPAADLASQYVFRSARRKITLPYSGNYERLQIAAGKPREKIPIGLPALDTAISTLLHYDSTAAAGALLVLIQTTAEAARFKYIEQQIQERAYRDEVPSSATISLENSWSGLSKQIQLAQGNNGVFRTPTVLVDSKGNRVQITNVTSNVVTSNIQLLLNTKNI
Experiment: Binding studies using fluorescence

`Nc1cc[nH]c(=O)n1` [CYS, cytosine] gave a Kd of ~230 µM.

Work on `Nc1ccn([C@@H]2O[C@H](CO)[C@@H](O)[C@H]2O)c(=O)n1` [CYT, cytidine] yielded a Kd of ~5 µM.
